From patent US20050049285A1, “Dichloropyridyl methyl cyanamidines” (priority 2000, published 2005)

Tests used:
[1] = tested on: Erysiphe graminis f. sp. hordei; test: Erysiphe-Test (barley)/induction of resistance; assay type: in vivo, Erysiphe graminis f. sp. hordei on barley; conditions: barley plants sprayed at 750 g/ha; inoculated 4 days after treatment; evaluated 7 days after inoculation; 0% = as control, 100% = no infection
Method: Erysiphe-Test (Barley)/Induction of Resistance
To produce a suitable preparation of active compound, 1 part by weight of active compound is mixed with the stated amounts of solvent and emulsifier, and the concentrate is diluted with water to the desired concentration.
To test for resistance-inducing activity, young cereal plants are sprayed with the preparation of active compound at the stated application rate. 4 days after the treatment, the plants are inoculated with spores of Erysiphe graminis f. sp. hordei. The plants are then placed in the greenhouse at 70% relative atmospheric humidity and a temperature of 18 C.
Evaluation is carried out 7 days after the inoculation. 0% means an efficacy which corresponds to that of the control, whereas an efficacy of 100% means that no infection is observed.

melting point	Structure (SMILES)	Efficacy in % [1]
–	CC/C(=N\C#N)NCc1cc(Cl)nc(Cl)c1	80%
–	C/C(=N\C#N)NCc1cc(Cl)nc(Cl)c1	95%
160 °C	N#C/N=C/NCc1cc(Cl)nc(Cl)c1 [Example 1, N′-cyano-N-[(2,6-dichloro-4-pyridinyl)methyl]imidoformamide]	–
–	N#C/N=C/NCc1cc(Cl)nc(Cl)c1 [drawing 9]	100%
